Test results as given in patent US20130210852A1, “METHODS FOR TREATING INFECTION” (priority 2010, published 2013).
Values after ≈ are worked out from the molar mass of the structure shown.

Key:
HEp-2 cells = assay: Cytokine arrays of HEp-2 supernatants (Panomics); details: antibiotic 64 μg/ml, 24 h
[1] = tested on: EAEC strain O42 adherence to HEp-2 cells; assay: HEp-2 cell attachment assay (microscopy after Wright-Giemsa staining); assay type: cell-based, human
[2] = tested on: EAEC adherence with dialyzed conditioned medium of HEp-2 cells; assay: Effect of dialyzed HEp-2 supernatants on EAEC adherence; assay type: cell-based, human; set-up: dose or concentration left out as unconfirmed; details: HEp-2 treated 24 h, supernatant dialyzed; chambers with or without HEp-2 cells, 3 h
Description: HEp-2 cells were cultured in T-175 flasks as described above. […] After 24 h, the medium was collected, loaded into regenerated cellulose dialysis tubing (cutoff, 6 to 8 kDa; Spectra/Por, Rancho Domiguez, Calif.), and dialyzed against 4 liters of PBS changed four times. Each dialysis step lasted at least 6 h and was carried out at 4° C. Dialyzed supernatants were either used immediately in adherence assays or stored at −20° C. until use.
The effect of supernatants on EAEC adherence was determined by mixing EAEC with the dialyzed media from the different antibiotic (or control) treatment groups and adding the bacteria to HEp-2 cells cultured in chambered slides or to chambered slides with no HEp-2 cells. Adherence was visualized microscopically as described above.

C difficile = assay: Susceptibility testing of C difficile isolates (rifaximin agar dilution, rifampin E strips)

CO[C@H]1/C=C/O[C@@]2(C)Oc3c(C)c(O)c4c(O)c(c(/C=N/N5CCN(C)CC5)c(O)c4c3C2=O)NC(=O)/C(C)=C\C=C\[C@H](C)[C@H](O)[C@@H](C)[C@@H](O)[C@@H](C)[C@H](OC(C)=O)[C@@H]1C [Rifampin]
cytokine profile of HEp-2 supernatants (HEp-2 cells): had the same profile, except that MIP5 was not detected
EAEC O42 adherence to HEp-2 cells (microscopy) [1]: adhered in the traditional stacked-brick formation
EAEC adherence after mixing with dialyzed supernatants of antibiotic-treated HEp-2 cells [2]: adhered to chambers independently of the presence of HEp-2 cells
MIC50 against C difficile (C difficile; 359 isolates): <2 ng/mL
MIC90 against C difficile (C difficile; 359 isolates): 4000 ng/mL (≈ 4860 nM)
MIC50 against C difficile (C difficile; 359 isolates, listed as rifampin): < 2 ng/mL
Isolates resistant to rifampin (n = 28), (%) (C difficile; genotype A +, B +, BT +, tcdC-del +): (7) %
Isolates resistant to rifampin (n = 28), (%) (C difficile; genotype A +, B +, BT +, tcdC-del −): (14) %
Isolates resistant to rifampin (n = 28), (%) (C difficile; genotype A +, B +, BT −, tcdC-del +): (18) %
Isolates resistant to rifampin (n = 28), (%) (C difficile; genotype A +, B +, BT −, tcdC-del −): (46) %
Isolates resistant to rifampin (n = 28), (%) (C difficile; genotype A −, B −, BT −, tcdC-del −): (14) %
